Data from patent US20230364051A1, “FORMULATIONS AND METHODS FOR IMPROVING AVIAN HEALTH” (CORNELL UNIVERSITY, priority 2022, published 2023).
Marks after values point to notes of the source that are not given here.

How the values were obtained:
hepcidin [1] = details: human hepatocytes; cited from earlier work
DcytB = assay: Duodenal gene expression by RT-qPCR: DcytB; type: in vivo, Gallus gallus; details: genistein treatment groups vs no injection, H2O and inulin, p < 0.05; duodenum
Method: (§1) Cornish-cross fertile broiler eggs (Gallus gallus, n = 39) were obtained from a commercial hatchery (Moyer’s chicks, Quakertown, PA, USA). The eggs were incubated under optimal conditions at the Cornell University Animal Science Poultry Farm Incubator [18]. All animal protocols were approved by Cornell University Institutional Animal Care and Use committee (IACUC #2020-0077). At day 17 of embryonic incubation, eggs containing viable embryos were weighed and divided into 5 groups, with all treatment groups assigned eggs of similar weight frequency distribution. Each group was then injected with the specific solution (1 mL per egg) with a 21-gauge needle into the amniotic fluid. Treatments in powder form were separately diluted in DI H2O. […]
(§2) Total RNA was extracted from 30 mg of the proximal duodenal (n=6) or liver tissues (n=6) using Qiagen RNeasy Mini Kit (Qiagen Inc., Valencia, CA) according to the manufacturer’s protocol. […] RNA was quantified by absorbance at 260-280 nm using a NanoDrop 2000 (ThermoFisher Scientific, Waltham, MA). […]
(§3) As previously described. cDNA was generated using a 20 uL reverse transcriptase (RT) reaction in a BioRad C1000 touch thermocycler using the Improm-II Reverse Transcriptase Kit (Catalog #A1250; Promega, Madison, WI, USA). […] Genomic DNA contamination was assessed using a RT-PCR assay for the reference of genes samples. […]

[2] = Body weight and cecum weight at hatch after intraamniotic administration; type: in vivo, Gallus gallus; details: for Average Body Weight / Average Cecum Weight: day 17, at hatch
Method: Cornish-cross fertile broiler eggs (Gallus gallus, n = 39) were obtained from a commercial hatchery (Moyer’s chicks, Quakertown, PA, USA). The eggs were incubated under optimal conditions at the Cornell University Animal Science Poultry Farm Incubator [18]. All animal protocols were approved by Cornell University Institutional Animal Care and Use committee (IACUC #2020-0077). At day 17 of embryonic incubation, eggs containing viable embryos were weighed and divided into 5 groups, with all treatment groups assigned eggs of similar weight frequency distribution. Each group was then injected with the specific solution (1 mL per egg) with a 21-gauge needle into the amniotic fluid. Treatments in powder form were separately diluted in DI H2O. Two treatment groups (1.25, 2.5 wt. %), two controls (H2O and non-injected), and a positive control (5 wt. % inulin) were administered. After injection, the injection holes were sealed with cellophane tape and the eggs were placed in hatching baskets such that each treatment was equally represented at each incubator location. Immediately upon hatch (day 21), blood was taken for hemoglobin determination and all chicks were then euthanized by CO2 exposure. The small intestine, pectoral muscle, cecum, and liver were collected, immediately frozen in liquid nitrogen, and then stored in a -80° C. freezer until analysis.

Hepcidin [3] = assay: Liver gene expression by RT-qPCR: hepcidin; type: in vivo, Gallus gallus; details: genistein exposure vs no injection, p < 0.05
Method: as §1, §2, §3

[4] = system: gut bacterial populations; details: mice fed a high fat diet; cited from earlier work
DMT1 = assay: Duodenal gene expression by RT-qPCR: DMT1; type: in vivo, Gallus gallus; details: 1.25 wt. % genistein vs no injection and H2O controls, p < 0.05; duodenum
Method: as §1, §2, §3

[5] = 1.25 wt. % genistein intraamniotic
[6] = 2.5 wt. % genistein intraamniotic

O=c1c(-c2ccc(O)cc2)coc2cc(O)cc(O)c12 [Genistein, genistein]
Hepcidin transcription levels and promoter activity (hepcidin [1]): increased | Gene expression of DcytB (DcytB): significantly downregulated | Average Body Weight [2, 5]: 45.83 ± 0.99 ^ab g | Average Cecum Weight [2, 5]: 0.50 ± 0.04 ^ab g | Average Body Weight [2, 6]: 47.69 ± 1.30 ^a g | Average Cecum Weight [2, 6]: 0.44 ± 0.03 ^b g | Body weight vs control ([2]; 2.5 wt. % genistein vs non-injected group, p < 0.05): significantly higher | Cecum weight of no injection and H2O groups compared to treated group ([2]; 2.5 wt. % genistein, p < 0.05): significantly greater values | Gene expression of hepcidin (Hepcidin [3]): significantly upregulated | Gut bacterial populations associated with decreasing levels of lipopolysaccharide [4]: increased | Gene expression of DMT1 (DMT1): downregulated
